Reference: patent US9675595B2, “Synergistic combinations of PI3K- and MEK-inhibitors” (Novartis AG, priority 2011, dated 2017)

Test system: Melanoma cell lines
Test: Cell line testing, dose matrix, Example 3, melanoma panel
Type: cell-based
Details: melanoma lines with activating NRAS mutation and BRAF mutants
Experimental: The combination of PI3K inhibitor COMPOUND A and MEK inhibitor COMPOUND B, as defined above, was tested across 38 cell lines from three tissue types (7 pancreas, 10 lung, and 21 melanoma). Each combination was tested in a partially-filled “dose matrix” constructed as follows: Each single drug was dispensed into growth media at a top concentration (11 μM for COMPOUND A or 2.7 μM for COMPOUND B), and serially diluted by 3× to yield a 7 point series covering a factor of 729 in concentration. The compounds were then combined at all pairs of the 2nd through the 6th concentrations, and this dose matrix was extended by also combining the top and bottom concentrations with each other. […] In order to identify cytotoxic treatments, we also determined “Day 0” cell populations at the start of drug treatment.
Cell responses at each treatment were measured using simple inhibitions I=1−T/V, where T is the treated well's raw response and V is the median untreated level between replicate wells on the plate. Cytotoxicity measurements were measured using a “Growth Inhibition” GI=1−(T−V0)/[T<V0? […] The “Synergy Score” SLoewe=ΣX,Y lnfX lnfY max(0,Idata) max(0,Idata−ILoewe) was calculated from the differences between the data Idata and the dose-additive surface ILoewe, across all combined concentrations X,Y, and weighted by the measured inhibition and the single agent dilution factors fX, fY. […]

Cc1nc(NC(=O)N2CCC[C@H]2C(N)=O)sc1-c1ccnc(C(C)(C)C(F)(F)F)c1 [COMPOUND A, (S)-pyrrolidine-1,2-dicarboxylic acid 2-amide 1-({4-methyl-5-[2-(2,2,2-trifluoro-1,1-dimethyl-ethyl)-pyridin-4-yl]-thiazol-2-yl}-amide)]
response as a single agent: weak responses
